Usually EC50 stands for the midpoint of the concentration-response curve.

Drawing on PubChem BioAssay AID743016 (Vanderbilt Specialized Chemistry Center, 2013), this text covers EC50 for 15 compounds.

This experiment deals with Mas-related G-protein coupled receptor member X1 (Homo sapiens) (UniProt Q96LB2). Put plainly: MrgX1 positive allosteric modulators, dose response, cell-based, HEK293, calcium flux, BAM8-22 (AID 743016). To be noted: HEK293-MrgX1, Fluo4 calcium flux, BAM8-22 potentiation; with BAM 0.1 µM. On the technique in general: A change in cytosolic calcium serves as a functional read-out for many receptors and channels.
Mas-related G-protein coupled receptor member X1 (Homo sapiens), sequence (Q96LB2 whole entry, looked up): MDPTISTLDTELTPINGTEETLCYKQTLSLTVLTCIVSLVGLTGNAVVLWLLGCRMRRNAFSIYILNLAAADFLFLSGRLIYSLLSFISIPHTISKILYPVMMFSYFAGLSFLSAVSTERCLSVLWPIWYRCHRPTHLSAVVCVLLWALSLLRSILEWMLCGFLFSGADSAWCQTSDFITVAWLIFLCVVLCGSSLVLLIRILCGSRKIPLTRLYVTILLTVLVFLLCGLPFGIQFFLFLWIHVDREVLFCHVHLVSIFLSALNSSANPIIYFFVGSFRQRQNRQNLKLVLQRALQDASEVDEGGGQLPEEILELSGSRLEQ
In the case of `COc1ccc(Cl)cc1NC(=O)c1ccccc1NS(C)(=O)=O`, the EC50 was 1.01 µM.

Consider `CSc1ccccc1NC(=O)c1ccccc1NS(C)(=O)=O`, for which the EC50 is 0.42 µM. Consider `CCOc1ccccc1NC(=O)c1ccccc1NS(=O)(=O)CC`, for which the 50% effective concentration (EC50) was 0.91 µM. With `COc1ccccc1NC(=O)c1ccccc1NS(C)(=O)=O` the figure was 3.06 µM; with `CCOc1ccccc1NC(=O)c1ccccc1NS(=O)(=O)CCCl`, 0.38 µM.

As to `COC(=O)c1ccccc1NC(=O)c1ccccc1N(C)S(C)(=O)=O`, the EC50 was 1.57 µM.

Take `CCOc1ccccc1NC(=O)c1ccccc1N(C)S(C)(=O)=O`: the concentration for a half-maximal effect (EC50) is 1.39 µM.

With `CSc1ccccc1NC(=O)c1ccccc1N(C)S(C)(=O)=O`, the EC50 is 0.5 µM. `COc1ccc(NC(=O)c2ccccc2NS(=O)(=O)c2cccnc2Cl)c(OC)c1`: the EC50 is 2.91 µM. `CCOc1ccccc1NC(=O)c1ccccc1NS(C)(=O)=O`: the EC50 was 1.91 µM. Regarding `COc1ccc(NC(=O)c2ccccc2NS(C)(=O)=O)c(OC)c1`, the 50% effective concentration (EC50) was 0.15 µM.

As to `CCOc1ccccc1NC(=O)c1ccccc1NS(=O)(=O)C1CC1`, the concentration giving a half-maximal response (EC50) was 0.19 µM. Then `CCOc1ccccc1NC(=O)c1ccccc1NS(=O)(=O)CC1CC1`, with 4.47 µM; and `CCOc1ccccc1NC(=O)c1ccccc1NS(=O)(=O)C(C)C`, with 1.82 µM. Then `COc1ccc(C)cc1NC(=O)c1ccccc1NS(C)(=O)=O`, with 2.34 µM.
